Measurements: patent US20020019527A1 (priority 2000, published 2002)
Counter-ions that a name gives are not always drawn.

What follows are compounds tested against T1, Farnesyltransferase (FTase) (Bos taurus, UniProt P29702+P49355) (assay: Farnesyltransferase inhibition (scintillation proximity assay, [3H]-FPP / biotin-K-ras peptide)). Settings: not given.
T1 construct: precipitation from a beef brain homogenate; from tissue; host or cells: bovine brain
Type: biochemical, bovine
Summary of the method: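 Read-out: [3H]-FPP prenylation of a biotinylated K-ras peptide by SPA, measured 1 h after quenching. Enzyme: FTase purified from bovine brain (ammonium sulfate cut, DEAE Sepharose), free of GGTase I and II. Test compounds in ethanol, diluted 10-fold into the reaction.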

T1 sequence (P49355 whole entry, one chain of several): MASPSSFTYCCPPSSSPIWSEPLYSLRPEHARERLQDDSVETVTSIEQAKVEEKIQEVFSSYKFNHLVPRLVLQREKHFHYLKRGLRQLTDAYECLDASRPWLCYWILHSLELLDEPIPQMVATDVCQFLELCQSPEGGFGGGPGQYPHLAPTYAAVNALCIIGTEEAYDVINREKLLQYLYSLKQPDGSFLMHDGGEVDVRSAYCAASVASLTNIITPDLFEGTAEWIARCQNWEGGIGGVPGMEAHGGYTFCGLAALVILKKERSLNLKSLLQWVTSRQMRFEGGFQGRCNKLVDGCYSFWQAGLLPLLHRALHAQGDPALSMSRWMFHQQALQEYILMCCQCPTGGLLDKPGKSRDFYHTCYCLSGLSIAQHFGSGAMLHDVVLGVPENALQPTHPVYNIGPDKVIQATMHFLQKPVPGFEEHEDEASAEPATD

| Compound | % Inhibition at 10^−6M |
| --- | --- |
| Cc1ccccc1-c1cc(C(OCc2noc(-c3cccc(C(F)(F)F)c3)n2)c2cncn2C)ccc1C#N.Cl (stereo not drawn) [Example 169, 2′-methyl-5-((1,1-methyl-1H-imidazol-5-yl)((5-(3-(trifluoromethyl)phenyl)-1,2,4-oxadiazol-3-yl)methoxy)methyl)(1,1′-biphenyl)-2-carbonitrile hydrochloride] | 70% |
| Cc1ccccc1-c1cc(C(OCc2c(C)ccc3ccccc23)c2cncn2C)ccc1C#N.Cl (stereo not drawn) [Example 178] | 90% |
| Cc1ccccc1-c1cc(C(OCc2c(C)c(C)cc(C)c2C)c2cncn2C)ccc1C#N.Cl (stereo not drawn) [Example 179] | 93% |
| Cc1ccccc1-c1cc(C(OCc2ccc(OC(F)(F)F)cc2)c2cncn2C)ccc1C#N.Cl (stereo not drawn) [Example 180] | 95% |

Same assay, conditions: compound at 10^−6 M; bovine FTase, 37° C., 30 minutes

| inhibition at 1 µM | % Inhibition at 10^−6M | Compound |
| --- | --- | --- |
| 85% | – | COc1ccc(C(C)=O)cc1COC(c1ccc(C#N)c(-c2ccccc2C)c1)c1cncn1C (stereo not drawn) [Example 170, 5-(((5-acetyl-2-methoxybenzyl)oxy)(1-methyl-1H-imidazol-5-yl)methyl)-2′-methyl(1,1′-biphenyl)-2-carbonitrile hydrochloride] |
| 75% | – | Cc1ccccc1-c1cc(C(OCc2noc(-c3ccccc3)n2)c2cncn2C)ccc1C#N (stereo not drawn) [Example 171, 2′-methyl-5-((1-methyl-1H-imidazol-5-yl)((5-phenyl-1,2,4-oxadiazol-3-yl)methoxy)methyl)(1,1′-biphenyl)-2-carbonitrile hydrochloride] |
| 85% | – | COc1ccc(-c2nc(COC(c3ccc(C#N)c(-c4ccccc4C)c3)c3cncn3C)no2)cc1 (stereo not drawn) [Example 172, 5-(((5-(4-methoxyphenyl)-1,2,4-oxadiazol-3-yl)methoxy)(1-methyl-1H-imidazol-5-yl)methyl)-2′-methyl(1,1′-biphenyl)-2-carbonitrile hydrochloride] |
| 80% | – | COc1cccc(-c2nc(COC(c3ccc(C#N)c(-c4ccccc4C)c3)c3cncn3C)no2)c1 (stereo not drawn) [Example 173, 5-(((5-(3-methoxyphenyl)-1,2,4-oxadiazol-3-yl)methoxy)(1-methyl-1H-imidazol-5-yl)methyl)-2′-methyl(1,1′-biphenyl)-2-carbonitrile hydrochloride] |
| 75% | – | Cc1ccccc1-c1cc(C(OCc2csc(-c3ccc(C(F)(F)F)cc3)n2)c2cncn2C)ccc1C#N (stereo not drawn) [Example 175, 2′-methyl-5-((1-methyl-1H-imidazol-5-yl)((2-(4-(trifluoromethyl)phenyl)-1,3-thiazol-4-yl)methoxy)methyl)(1,1′-biphenyl)-2-carbonitrile hydrochloride] |
| 93% | – | Cc1ccccc1-c1cc(C(OCc2cnc(Cl)c(Cl)c2)c2cncn2C)ccc1C#N (stereo not drawn) [Example 181, 5-(((5,6-dichloro-3-pyridinyl)methoxy)(1-methyl-1H-imidazol-5-yl)methyl)-2′-methyl(1,1′-biphenyl)-2-carbonitrile hydrochloride] |
| 89% | – | Cc1ccccc1-c1cc(C(OCc2ncc(C(F)(F)F)cc2Cl)c2cncn2C)ccc1C#N (stereo not drawn) [Example 182, 5-(((3-chloro-5-(trifluoromethyl)-2-pyridinyl)methoxy)(1-methyl-1H-imidazol-5-yl)methyl)-2′-methyl(1,1′-biphenyl)-2-carbonitrile hydrochloride] |
| 90% | – | Cc1ccccc1-c1cc(C(OCc2ccc3ccccc3c2)c2cncn2C)ccc1C#N (stereo not drawn) [Example 183, 2′-methyl-5-((1-methyl-1H-imidazol-5-yl)(2-naphthylmethoxy)methyl)(1,1′-biphenyl)-2-carbonitrile hydrochloride] |
| 95% | – | Cc1ccccc1-c1cc(C(OCc2cccc(Br)c2)c2cncn2C)ccc1C#N (stereo not drawn) [Example 184, 5-(((3-bromobenzyl)oxy)(1-methyl-1H-imidazol-5-yl)methyl)-2′-methyl(1,1′-biphenyl)-2-carbonitrile hydrochloride] |
| 85% | – | Cc1ccccc1-c1cc(C(OCc2ccccc2Br)c2cncn2C)ccc1C#N (stereo not drawn) [Example 185, 5-(((2-bromobenzyl)oxy)(1-methyl-1H-imidazol-5-yl)methyl)-2′-methyl(1,1′-biphenyl)-2-carbonitrile hydrochloride] |
| 85% | – | Cc1ccccc1-c1cc(C(OCc2c(F)cccc2F)c2cncn2C)ccc1C#N (stereo not drawn) [Example 186, 5-(((2,6-difluorobenzyl)oxy)(1-methyl-1H-imidazol-5-yl)methyl)-2′-methyl(1,1′-biphenyl)-2-carbonitrile hydrochloride] |
| 93% | – | Cc1ccccc1-c1cc(C(OCc2ccc(C(F)(F)F)cc2F)c2cncn2C)ccc1C#N (stereo not drawn) [Example 187, 5-(((2-fluoro-4-(trifluoromethyl)benzyl)oxy)(1-methyl-1H-imidazol-5-yl)methyl)-2′-methyl(1,1′-biphenyl)-2-carbonitrile hydrochloride] |
| 92% | – | Cc1ccccc1-c1cc(C(OCc2ccc(C(N)=O)cc2)c2cncn2C)ccc1C#N (stereo not drawn) [Example 188, 4-(((6-cyano-2′-methyl(1,1′-biphenyl)-3-yl)(1-methyl-1H-imidazol-5-yl)methoxy)methyl)benzamide] |
| 95% | – | CNC(=O)c1ccc(COC(c2ccc(C#N)c(-c3ccccc3C)c2)c2cncn2C)cc1 (stereo not drawn) [Example 189, 4-(((6-cyano-2′-methyl(1,1′-biphenyl)-3-yl)(1-methyl-1H-imidazol-5-yl)methoxy)methyl)-N-methylbenzamide] |
| 90% | – | Cc1ccccc1-c1cc(C(OCc2ccc(C(=O)N(C)C)cc2)c2cncn2C)ccc1C#N (stereo not drawn) [Example 190, 4-(((6-cyano-2′-methyl(1,1′-biphenyl)-3-yl)(1-methyl-1H-imidazol-5-yl)methoxy)methyl)-N,N-dimethylbenzamide] |
| – | 99% | Cn1cncc1CN(Cc1ccc(C#N)cc1)C(=O)c1ccc(C#N)c(-c2cccc3ccccc23)c1 [Example 191, 4-cyano-N-(4-cyanobenzyl)-N-((1-methy-1H-imidazol-5-yl)methyl)-3-(1-naphthyl)benzamide] |
| 91% | – | Cn1cncc1CN(Cc1ccc(C(=O)O)cc1)Cc1ccc(C#N)c(-c2cccc3ccccc23)c1 [Example 193, 4-(((4-cyano-3-(1-naphthyl)benzyl)((1-methyl-1H-imidazol-5-yl)methyl)amino)methyl)benzoic acid dihydrochloride] |
| 97% | – | CC(=O)Nc1ccc(CN(Cc2ccc(C#N)c(-c3cccc4ccccc34)c2)Cc2cncn2C)cc1 [Example 194, N-(4-(((4-cyano-3-(1-naphthyl)benzyl)((1-methyl-1H-imidazol-5-yl)methyl)amino)methyl)phenyl)acetamide dihydrochloride] |
| 98% | – | Cn1cncc1CN(Cc1ccc(S(C)(=O)=O)cc1)Cc1ccc(C#N)c(-c2cccc3ccccc23)c1 [Example 195, 4-((((1-methyl-1H-imidazol-5-yl)methyl)(4-(methylsulfonyl)benzyl)amino)methyl)-2-(1-naphthyl)benzonitrile dihydrochloride] |

| Compound | inhibition at 1 µM | % Inhibition at 10^−6M |
| --- | --- | --- |
| Cc1cc(COC(c2ccc(C#N)c(-c3ccccc3C)c2)c2cncn2C)no1 (stereo not drawn) [Example 177, 2′-methyl-5-((1-methyl-1H-imidazol-5-yl)((5-methyl-3-isoxazolyl)methoxy)methyl)(1,1′-biphenyl)-2-carbonitrile hydrochloride] | 77% | – |
